Experimental data: patent US10561666B2, “Amido compounds as RORγt modulators and uses thereof” (New York University, priority 2010, dated 2020)

Biological target: RORγt (Mus musculus, UniProt P51450, T352K)
Assay: RORγt S2 cell Gal4-luciferase reporter assay
Conditions: for IC50: Drosophila S2 cells, Gal4-RORγt luciferase reporter, 20 hr; for Emax: read-out: Efficacy (%)
Source text: Methods: The Drosophila S2 cell line was originally purchased from Invitrogen and was maintained in Schneider's medium supplemented with 10% heat-inactivated bovine fetal calf serum and antibiotics (Invitrogen). […] The resulting chimeric gene was subcloned into the copper inducible pMT/V5-His A vector (available from Invitrogen).
In order to generate stable cell lines, cells were co-transfected with pMT-G4DBD-RORγt, pMT-G4DBD-RORα, pMT-G4DBD-DHR3, or pMT-G4DBDVP16 and pHygro plasmids (Invitrogen) and screened for resistant colonies in the presence of hygromycin (0.3 mg/mL).
Methods: 600 G4DBD-RORγ/γt-luc reporter (#25) or G4DBD-VP16-luc reporter cells were distributed into each well of 1,536-well white bottom plates in 4 μl S2 cell culture volume containing hygromicin (300 μg/ml) and puromycin (2 μg/ml). […] After one-hour incubation, 1 μl of culture medium solution containing copper sulfate (to final 0.7 mM) and 10 μM RORγ/γt antagonists were added to each well. After 20-hour incubation at ambient temperature, 1.5 μl firefly luciferase detection mix was added and the luciferase activities were measured in 10 min. ViewLux luminometers were used for measuring luciferase signal.
Since their cognate DNA binding sites were not well characterized, the DNA binding domains (DBD) of RORγ/γt, RORα (mouse homolog for POPγ), and DHR3 (Drosophila orthologue for ROR family proteins) were replaced with the heterologous yeast GAL4 DBD. The transcriptionally active domain of general transcriptional activator VP16 was also fused with GAL4 DBD. The GAL4 fusion constructs were placed under the control of a copper inducible promoter, and stable S2 cell lines with genomic integration of these four reporter constructs were generated. The copper inducible promoter ensures tight regulation of GAL4-fusion protein expression and it allows small molecules to get into the cells prior to protein induction, thus increasing their effects on GAL4 reporters. The stable reporter cell lines also encode the firefly luciferase reporter, whose expression is regulated by five copies of the GAL4 binding site enhancer (UAS), along with the pol III-driven Renilla luciferase reporter.
A cell-based reporter assay was used to detect RORγt-mediated activity. This assay, called RORγt□ employed Drosophila Schneider cells that were stably transfected with two vectors: a gene expressing a fusion of the Gal4 DNA binding domain and RORγt transactivation domain under the control of the metallothionine promoter and a Photinus luciferase reporter regulated by the Gal4 binding site enhancer, UAS. […] Cells (600/well) were dispensed into white solid 1536-well plates (Greiner) using a solenoid-based dispenser. Following transfer of 23 nL compound or DMSO vehicle by a pin tool, the plates were incubated 1 hr at ambient temperature, and 1 uL/well copper sulfate (700 uM final concentration) was added. The plates were centrifuged 15 s at 1000 RPM and incubated 20 hr at ambient temperature. After addition of 1.5 uL Photinus luciferase detection reagent, the plates were incubated 10 min at ambient temperature and then read by a ViewLux (Perkin Elmer) to detect luminescence. […] Efficacy is expressed as % of the maximal response of control inhibitor (Digoxin), set at 100%.

Chain of RORγt (P51450 with tags, fused parts or gaps T352K): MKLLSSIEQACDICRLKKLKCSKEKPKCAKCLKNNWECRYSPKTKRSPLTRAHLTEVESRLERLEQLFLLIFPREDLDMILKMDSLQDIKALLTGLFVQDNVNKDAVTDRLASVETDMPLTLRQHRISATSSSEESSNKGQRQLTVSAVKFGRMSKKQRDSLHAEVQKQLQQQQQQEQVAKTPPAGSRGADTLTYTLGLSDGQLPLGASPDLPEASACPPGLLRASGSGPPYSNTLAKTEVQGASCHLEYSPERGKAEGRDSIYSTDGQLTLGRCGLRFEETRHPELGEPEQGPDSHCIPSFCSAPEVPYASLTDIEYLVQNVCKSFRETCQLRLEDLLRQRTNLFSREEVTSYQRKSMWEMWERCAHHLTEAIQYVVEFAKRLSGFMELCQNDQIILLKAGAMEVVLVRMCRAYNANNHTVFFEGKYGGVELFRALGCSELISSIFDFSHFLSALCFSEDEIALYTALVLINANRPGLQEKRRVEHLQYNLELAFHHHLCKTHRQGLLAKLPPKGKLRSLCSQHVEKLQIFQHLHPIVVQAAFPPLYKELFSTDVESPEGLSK

IC50 (IC50(μM))	Emax	IC50	Structure (SMILES)
1 to 10 µM	93.3%	–	COc1cc(O)c(C(CC(=O)N2CC(C)CC(C)C2)c2cccc(OC(F)(F)F)c2)c(OC)c1 (stereo not shown) [Compound 93, 1-(3,5-Dimethylpiperidin-1-yl)-3-(2-hydroxy-4,6-dimethoxyphenyl)-3-(3-(trifluoromethoxy)phenyl)propan-1-one]
1 to 10 µM	90.5%	–	COc1cc(O)c(C(CC(=O)N2CC(C)CC(C)C2)c2cccc(OC(C)C)c2)c(OC)c1 (stereo not shown) [Compound 94, 1-(3,5-Dimethylpiperidin-1-yl)-3-(2-hydroxy-4,6-dimethoxyphenyl)-3-(3-isopropoxyphenyl)propan-1-one]
1 to 10 µM	93.1%	–	COc1cc(O)c(C(CC(=O)N2CC(C)CC(C)C2)c2ccc(C(=O)NC3CC3)cc2)c(OC)c1 (stereo not shown) [Compound 95]
1 to 10 µM	94.8%	–	COc1cc(O)c(C(CC(=O)N2CC(C)CC(C)C2)c2ccc(OC(F)(F)F)cc2)c(OC)c1 (stereo not shown) [Compound 96, 1-(3,5-Dimethylpiperidin-1-yl)-3-(2-hydroxy-4,6-dimethoxyphenyl)-3-(4-(trifluoromethoxy)phenyl)propan-1-one]
11 to 50 µM	61.5%	–	COc1cc(O)c(C(CC(=O)N2CC(C)CC(C)C2)c2cc(Cl)cc(Cl)c2)c(OC)c1 (stereo not shown) [Compound 97]
1 to 10 µM	92.6%	–	COc1cc(O)c(C(CC(=O)N2CC(C)CC(C)C2)c2ccc(C(=O)O)cc2)c(OC)c1 (stereo not shown) [Compound 99]
< 1 µM	–	–	COc1cc(O)c(C(CC(=O)N2CC(C)CC(C)C2)c2ccc(C(C)=O)cc2)c(OC)c1 (stereo not shown) [Compound 100, 3-(4-Acetylphenyl)-1-(3,5-dimethylpiperidin-1-yl)-3-(2-hydroxy-4,6-dimethoxyphenyl)propan-1-one]
1 to 10 µM	–	–	COc1cc(O)c(C(CC(=O)N2CC(C)CC(C)C2)c2cccc(C(=O)O)c2)c(OC)c1 (stereo not shown) [Compound 101, 3-(3-(3,5-Dimethylpiperidin-1-yl)-1-(2-hydroxy-4,6-dimethoxyphenyl)-3-oxopropyl)benzoic acid]
1 to 10 µM	99.9%	–	COc1cc(O)c(C(CC(=O)N2CC(C)CC(C)C2)c2cccc(F)c2)c(OC)c1 (stereo not shown) [Compound 102]
1 to 10 µM	95.8%	–	COc1cc(O)c(C(CC(=O)N2CC(C)CC(C)C2)c2ccccc2Cl)c(OC)c1 (stereo not shown) [Compound 103]
1 to 10 µM	97.3%	–	COc1cc(O)c(C(CC(=O)N2CC(C)CC(C)C2)c2ccc3c(c2)OC(F)(F)O3)c(OC)c1 (stereo not shown) [Compound 104]
< 1 µM	94.7%	–	COc1cc(O)c(C(CC(=O)N2CC(C)CC(C)C2)c2ccc(SC)cc2)c(OC)c1 (stereo not shown) [Compound 105, 1-(3,5-Dimethylpiperidin-1-yl)-3-(2-hydroxy-4,6-dimethoxyphenyl)-3-(4-(methylthio)phenyl)propan-1-one]
1 to 10 µM	97.3%	–	COc1cc(O)c(C(CC(=O)N2CC(C)CC(C)C2)c2cc(F)c(F)c(F)c2)c(OC)c1 (stereo not shown) [Compound 109, 1-(3,5-Dimethylpiperidin-1-yl)-3-(2-hydroxy-4,6-dimethoxyphenyl)-3-(3,4,5-trifluorophenyl)propan-1-one]
–	–	1 to 10 µM	COc1cc(O)c(C(CC(=O)N2CC(C)CC(C)C2)c2ccc(OCc3ccccc3)cc2)c(OC)c1 (stereo not shown) [Compound 110]
1 to 10 µM	–	–	COc1cc(O)c(C(CC(=O)N2CC(C)CC(C)C2)c2ccc(C(N)=O)cc2)c(OC)c1 (stereo not shown) [Compound 111]
11 to 50 µM	106%	–	CCc1ccc(O)c(C(CC(=O)N2CCCC(C)C2)c2ccc3c(c2)OCO3)c1 (stereo not shown) [Compound 112]
11 to 50 µM	81.5%	–	Cc1ccc(C)c(C(CC(=O)N2CCCC(C)C2)c2ccc3c(c2)OCO3)c1O (stereo not shown) [Compound 113]
11 to 50 µM	87.3%	–	CC1CCCN(C(=O)CC(c2ccc3c(c2)OCO3)c2cc(C(C)C)ccc2O)C1 (stereo not shown) [Compound 114]
11 to 50 µM	48.2%	–	Cc1cc(C)c(O)c(C(CC(=O)N2CCCC(C)C2)c2ccc3c(c2)OCO3)c1 (stereo not shown) [Compound 116]
